Measured values as given in patent US11363819B2 (priority 2017, dated 2022).
Read-outs that look alike come from different tables or passages of the source.

Tests used:
soybean [1] = conditions: Magnesium chlorate 1600, Aciflurofen 96, combination 1600 + 96 gla/Ha
Procedure: Field trials were carried out to test the synergy of the combination magnesium chlorate and glufosinate-ammonium which is a protoporphyrinogen oxidase-inhibiting herbicides for desiccation in Soybean. The field trials were carried out at various locations in Brazil during spring. The percentage efficacy was calculated after 1, 4 and 7 days of applications.

soybean [2] = conditions: Magnesium chlorate 1600, Aciflurofen 96, combination 1600 + 96 gla/Ha; remark: listed apart in the source
Procedure: The field trials were carried out at various locations in Brazil during spring. The percentage efficacy was calculated after 1, 4 and 7 days of applications.

soybean [3] = assay type: in vivo; conditions: Magnesium chlorate 1600, Glufosinate ammonium 240, combination 1600 + 240 mL/Ha
Procedure: (§1) The expected efficacy of a combination of magnesium chlorate and co-herbicide was calculated using the well-established Colby method.
(§2) In the Colby method, the expected (or predicted) response of a combination of herbicides is calculated by taking the product of the observed response for each individual component of the combination when applied alone divided by 100 and subtracting this value from the sum of the observed response for each component when applied alone. An unexpected enhancement in efficacy of the combination is then determined by comparing the observed response of the combination to the expected (or predicted) response as calculated from the observed response of each individual component alone. If the observed response of the combination is greater than the expected (or predicted) response, or stated conversely, if the difference between the observed and expected response is greater than zero, then the combination is said to be synergistic or unexpectedly effective. (Colby, S. R., Weeds, 1967 (15), p. 20-22) The Colby method requires only a single dose of each herbicide applied alone and the mixture of both doses.
(§3) The present inventors have adopted the Coby method to calculate synergy of the combination of defoliants. The % defoliation of individual defoliants was calculated and compared to the expected and observed defoliation efficacy.
(§4) The defoliation activity of the individual defoliants of the invention and their combinations were evaluated on multiple crops including wheat, soybean and cotton. The trial was carried out in Randomized Complete Block (RCB) method, all field trials were conducted using this method. Each trial were replicated four times and conducted under GEP guidelines. Application volumes were varied for each mixture. Such field trials were carried out at various locations so as to generate independent data, the locations were chosen randomly across Brazil.
(§5) Field trials were carried out to test the synergy of the combination magnesium chlorate and glufosinate-ammonium which is a ESPS inhibitor herbicide for desiccation in Soybean. The field trials were carried out at various locations in Brazil during spring. The percentage efficacy was calculated after 1 and 4 days of applications. The target crop for defoliation was soybean and the results are recorded in the table below: […]

Conyza Canadenesis = assay type: in vivo
Procedure: as §1, §2, §4
Field trials were carried out to test the synergy of the combination magnesium chlorate and glufosinate-ammonium which is a […] herbicides for controlling Conyza Canadenesis. The field trials were carried out at various locations in Brazil. The percentage efficacy was calculated after 3, 14 and 28 days of applications.

soybean [4] = assay type: in vivo; conditions: Magnesium chlorate 2000, Glufosinate ammonium 300, combination 2000 + 300 gla/Ha
Procedure: as §1, §2, §3, §4
as §5, with “1, 4” for “1”, “7” for “4”

Triticum aesti = assay type: in vivo, wheat; conditions: Magnesium chlorate 3000, Glufosinate ammonium 1500, combination 3000 + 1500 mL/Ha
Procedure: as §1
as §2, with “(Colby, S. R., Weeds, 1967 (15), p. 20-22) The Colby method requires only a single dose of each herbicide applied alone and the mixture of both doses.” left out
as §3
The defoliation activity of the individual defoliants of the invention and their combinations were evaluated on multiple crops including wheat, soybean and cotton. […]

[5] = Magnesium chlorate 1200, Aciflurofen 72, combination 1200 + 72 gla/Ha
[6] = Magnesium chlorate 1600, Aciflurofen 96, combination 1600 + 96 gla/Ha
[7] = Magnesium chlorate 2000, Aciflurofen 120, combination 2000 + 120 gla/Ha
[8] = Magnesium chlorate 1200, Glufosinate 180, combination 1200 + 180 gla/Ha
[9] = Magnesium chlorate 1600, Glufosinate 240, combination 1600 + 240 gla/Ha
[10] = Magnesium chlorate 2000, Glufosinate 300, WG formulation 1600 + 300 gla/Ha

Procedure for Cenchrus echinatus: Field trials were carried out to test the synergy of the combination magnesium chlorate and acifluorfen for controlling Cenchrus echinatus. The field trials were carried out at various locations in Brazil. The percentage efficacy was calculated after 3, 14 and 21 days of applications.
Procedure for Digitaria insularis: Field trials were carried out to test the synergy of the combination magnesium chlorate and acifluorfen for controlling Digitaria insularis. The field trials were carried out at various locations in Brazil. The percentage efficacy was calculated after 3, 14 and 28 days of applications.
Procedure for Euphorbia heterophylla: Field trials were carried out to test the synergy of the combination magnesium chlorate and acifluorfen for controlling Euphorbia heterophylla. The field trials were carried out at various locations in Brazil. The percentage efficacy was calculated after 3, 14 and 28 days of applications.

O=C(O)c1cc(Oc2ccc(C(F)(F)F)cc2Cl)ccc1[N+](=O)[O-] [Aciflurofen, acifluorfen]
% control at 3 DAA Actual (Digitaria insularis; [5]): 7.7%
% control at 3 DAA Actual (Digitaria insularis; [6]): 28.3%
% control at 3 DAA Actual (Digitaria insularis; [7]): 31.7%
% control at 14 DAA Actual (Digitaria insularis; [5]): 38.3%
% control at 14 DAA Actual (Digitaria insularis; [6]): 78.3%
% control at 14 DAA Actual (Digitaria insularis; [7]): 87%
% control at 28 DAA Actual (Digitaria insularis; [5]): 81.7%
% control at 28 DAA Actual (Digitaria insularis; [6]): 98.7%
% control at 28 DAA Actual (Digitaria insularis; [7]): 95.3%
desiccation in soybean at 1 DAA Actual (soybean [1]): 0%
desiccation in soybean at 4 DAA Actual (soybean [1]): 11.7%
desiccation in soybean at 3 DAA Actual (soybean [2]): 91.0%
desiccation in soybean at 14 DAA Actual (soybean [2]): 10%
% control at 3 DAA Actual (Cenchrus echinatus; [5]): 13%
% control at 3 DAA Actual (Cenchrus echinatus; [6]): 17.7%
% control at 3 DAA Actual (Cenchrus echinatus; [7]): 18.3%
% control at 14 DAA Actual (Cenchrus echinatus; [5]): 30%
% control at 14 DAA Actual (Cenchrus echinatus; [6]): 50%
% control at 14 DAA Actual (Cenchrus echinatus; [7]): 50%
% control at 21 DAA Actual (Cenchrus echinatus; [5]): 50%
% control at 21 DAA Actual (Cenchrus echinatus; [6]): 74.3%
% control at 21 DAA Actual (Cenchrus echinatus; [7]): 61.7%
% control at 3 DAA Actual (Euphorbia heterophylla; [5]): 45%
% control at 3 DAA Actual (Euphorbia heterophylla; [6]): 56.7%
% control at 3 DAA Actual (Euphorbia heterophylla; [7]): 63.3%
% control at 14 DAA Actual (Euphorbia heterophylla; [5]): 28.3%
% control at 14 DAA Actual (Euphorbia heterophylla; [6]): 35.0%
% control at 14 DAA Actual (Euphorbia heterophylla; [7]): 50%
% control at 28 DAA Actual (Euphorbia heterophylla; [5]): 13.3%
% control at 28 DAA Actual (Euphorbia heterophylla; [6]): 31.7%
% control at 28 DAA Actual (Euphorbia heterophylla; [7]): 33.3%

CP(=O)(O)CCC(N)C(=O)O (centres unmarked) [Glufosinate ammonium, glufosinate-ammonium]
desiccation in soybean at 1 DAA Actual (soybean [3]): 0%
desiccation in soybean at 4 DAA Actual (soybean [3]): 18.3%
% control at 3 DAA Actual (Conyza Canadenesis; [8]): 13.3%
% control at 3 DAA Actual (Conyza Canadenesis; [9]): 13.3%
% control at 3 DAA Actual (Conyza Canadenesis; [10]): 63.3%
% control at 14 DAA Actual (Conyza Canadenesis; [8]): 61.7%
% control at 14 DAA Actual (Conyza Canadenesis; [9]): 90.7%
% control at 14 DAA Actual (Conyza Canadenesis; [10]): 50%
% control at 28 DAA Actual (Conyza Canadenesis; [8]): 58.3%
% control at 28 DAA Actual (Conyza Canadenesis; [9]): 95%
% control at 28 DAA Actual (Conyza Canadenesis; [10]): 33.3%
desiccation in soybean at 1 DAA Actual (soybean [4]): 0%
desiccation in soybean at 4 DAA Actual (soybean [4]): 30%
desiccation in soybean at 7 DAA Actual (soybean [4]): 63.3%
Defoliation in Triticum aesti at 3 DAA Actual (Triticum aesti): 78%

[Mg+2].[O-][Cl+2]([O-])[O-].[O-][Cl+2]([O-])[O-] [Magnesium chlorate]
desiccation in soybean at 1 DAA Actual (soybean [3]): 21.7%
desiccation in soybean at 4 DAA Actual (soybean [3]): 53.3%
% control at 3 DAA Actual (Digitaria insularis; [5]): 6%
% control at 3 DAA Actual (Digitaria insularis; [6]): 6%
% control at 3 DAA Actual (Digitaria insularis; [7]): 7%
% control at 14 DAA Actual (Digitaria insularis; [5]): 9.3%
% control at 14 DAA Actual (Digitaria insularis; [6]): 11.7%
% control at 14 DAA Actual (Digitaria insularis; [7]): 16%
% control at 28 DAA Actual (Digitaria insularis; [5]): 41.7%
% control at 28 DAA Actual (Digitaria insularis; [6]): 48.3%
% control at 28 DAA Actual (Digitaria insularis; [7]): 31.7%
% control at 3 DAA Actual (Conyza Canadenesis; [8]): 50%
% control at 3 DAA Actual (Conyza Canadenesis; [9]): 55%
% control at 3 DAA Actual (Conyza Canadenesis; [10]): 40%
% control at 14 DAA Actual (Conyza Canadenesis; [8]): 51.7%
% control at 14 DAA Actual (Conyza Canadenesis; [9]): 47.7%
% control at 14 DAA Actual (Conyza Canadenesis; [10]): 33.3%
% control at 28 DAA Actual (Conyza Canadenesis; [8]): 30%
% control at 28 DAA Actual (Conyza Canadenesis; [9]): 35%
% control at 28 DAA Actual (Conyza Canadenesis; [10]): 11.7%
desiccation in soybean at 1 DAA Actual (soybean [1]): 21.7%
desiccation in soybean at 4 DAA Actual (soybean [1]): 53.3%
desiccation in soybean at 3 DAA Actual (soybean [2]): 84.3%
desiccation in soybean at 14 DAA Actual (soybean [2]): 60%
% control at 3 DAA Actual (Cenchrus echinatus; [5]): 10.7%
% control at 3 DAA Actual (Cenchrus echinatus; [6]): 11.3%
% control at 3 DAA Actual (Cenchrus echinatus; [7]): 14%
% control at 14 DAA Actual (Cenchrus echinatus; [5]): 14.3%
% control at 14 DAA Actual (Cenchrus echinatus; [6]): 23.3%
% control at 14 DAA Actual (Cenchrus echinatus; [7]): 30%
% control at 21 DAA Actual (Cenchrus echinatus; [5]): 10.7%
% control at 21 DAA Actual (Cenchrus echinatus; [6]): 12.3%
% control at 21 DAA Actual (Cenchrus echinatus; [7]): 22.7%
desiccation in soybean at 1 DAA Actual (soybean [4]): 30%
desiccation in soybean at 4 DAA Actual (soybean [4]): 56.7%
desiccation in soybean at 7 DAA Actual (soybean [4]): 58.3%
Defoliation in Triticum aesti at 3 DAA Actual (Triticum aesti): 68%
% control at 3 DAA Actual (Euphorbia heterophylla; [5]): 31.7%
% control at 3 DAA Actual (Euphorbia heterophylla; [6]): 33.3%
% control at 3 DAA Actual (Euphorbia heterophylla; [7]): 40%
% control at 14 DAA Actual (Euphorbia heterophylla; [5]): 40%
% control at 14 DAA Actual (Euphorbia heterophylla; [6]): 35%
% control at 14 DAA Actual (Euphorbia heterophylla; [7]): 33.3%
% control at 28 DAA Actual (Euphorbia heterophylla; [5]): 23.3%
% control at 28 DAA Actual (Euphorbia heterophylla; [6]): 16.7%
% control at 28 DAA Actual (Euphorbia heterophylla; [7]): 11.7%
